Laboratory results taken from US9481676B2, “Azepino[4,5-B]indoles and methods of use” (Medivation Technologies, Inc., priority 2008, dated 2016).

What was measured:
[1] = biological target: T1, human recombinant serotonin (5-Hydroxytryptamine) 5-HT2C receptor (Homo sapiens, UniProt P28335); experiment: Serotonin 5-HT2C radioligand binding ([3H]Mesulergine); details: compound at 1 μM; read-out: Serotonin (1 μM) 5-HT2C, percent inhibition of specific binding
T1 construct: expressed in transfected cells; host or cells: CHO-K1 cells
T1 sequence (P28335 33-458): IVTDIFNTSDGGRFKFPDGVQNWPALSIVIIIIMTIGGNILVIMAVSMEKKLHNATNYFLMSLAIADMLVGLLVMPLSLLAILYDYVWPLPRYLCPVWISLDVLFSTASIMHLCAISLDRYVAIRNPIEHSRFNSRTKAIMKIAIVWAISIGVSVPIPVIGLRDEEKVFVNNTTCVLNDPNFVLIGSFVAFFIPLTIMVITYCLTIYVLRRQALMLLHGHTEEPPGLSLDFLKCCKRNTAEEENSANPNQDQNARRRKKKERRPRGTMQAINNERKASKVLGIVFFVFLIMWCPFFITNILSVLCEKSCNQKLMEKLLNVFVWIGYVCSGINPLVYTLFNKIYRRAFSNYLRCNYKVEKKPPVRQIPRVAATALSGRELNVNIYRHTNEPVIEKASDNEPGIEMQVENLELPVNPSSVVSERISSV
Outline: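 Membranes from CHO-K1 cells expressing human 5-HT2C, incubated with 1 nM [3H]mesulergine for 60 min at 25 °C in 50 mM Tris-HCl pH 7.4 with ascorbic acid and pargyline.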

[2] = biological target: T2, human recombinant histamine H2 receptor (Homo sapiens, UniProt P25021); experiment: Histamine H2 radioligand binding ([125I]Aminopotentidine); details: compound at 1 μM; read-out: Histamine Binding (1 μM) H2, percent inhibition of specific binding
T2 construct: expressed in transfected cells; host or cells: CHO-K1 cells
Outline: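 Membranes from CHO-K1 cells expressing recombinant human H2 receptor, in 50 mM phosphate buffer pH 7.4, incubated with 0.1 nM [125I]aminopotentidine for 120 min at 25 °C; nonspecific binding defined with 3 μM tiotidine.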

[3] = biological target: T3, human recombinant adrenergic α2A receptor (Homo sapiens, UniProt P08913); experiment: Adrenergic alpha2A radioligand binding ([3H]MK-912); details: compound at 1 μM; read-out: Adrenergic (1 μM) α2A, percent inhibition of specific binding
T3 construct: expressed in transfected cells; host or cells: insect Sf9 cells
T3 sequence (P08913 1-465): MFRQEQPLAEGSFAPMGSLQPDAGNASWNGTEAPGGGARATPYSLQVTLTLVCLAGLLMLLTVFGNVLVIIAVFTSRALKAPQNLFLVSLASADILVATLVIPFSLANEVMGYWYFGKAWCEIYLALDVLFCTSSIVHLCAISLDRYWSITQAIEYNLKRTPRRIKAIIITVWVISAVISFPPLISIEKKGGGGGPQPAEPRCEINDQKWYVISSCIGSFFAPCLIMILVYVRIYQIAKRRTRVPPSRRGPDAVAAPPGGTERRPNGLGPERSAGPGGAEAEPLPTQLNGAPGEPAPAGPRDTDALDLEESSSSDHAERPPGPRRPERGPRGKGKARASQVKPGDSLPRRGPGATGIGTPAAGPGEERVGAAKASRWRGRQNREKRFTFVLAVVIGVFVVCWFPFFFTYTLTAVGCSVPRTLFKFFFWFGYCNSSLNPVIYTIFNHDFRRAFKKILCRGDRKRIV
Procedure: To evaluate in radioligand binding assays the activity of compounds of the invention, human recombinant adrenergic α2A receptor expressed in insect Sf9 cells (Uhlen S et al. J Pharmacol Exp Ther. 271:1558, 1994) in a modified Tris-HCl buffer (50 mM Tris-HCl, pH 7.4, 12.5 mM MgCl2, 2 mM EDTA) was used. Compounds of invention were incubated with 1 nM [^3H]MK-912 for 60 min. at 25° C. MK912 is (2S-trans)-1,3,4,5′,6,6′,7,12b-octahydro-1′,3′-dimethyl-spiro[2 h-benzofuro [2,3-a]quinolizine-2,4′ (1′H)-pyrimidin]-2′ (3′H)-one hydrochloride Non-specific binding was estimated in the presence of 10 μM WB-4101 (2-(2,6-Dimethoxyphenoxyethyl)aminomethyl-1,4-benzodioxane hydrochloride). Receptor proteins were filtered and washed, the filters were then counted to determine [^3H]MK-912 specifically bound. Compounds were screened at 1 μM or lower, using 1% DMSO as vehicle. Biochemical assay results are presented as the percent inhibition of specific binding in Table 5.

[4] = biological target: T4, human recombinant dopamine D2L receptor (Homo sapiens, UniProt P14416); experiment: Dopamine D2L radioligand binding ([3H]Spiperone); details: compound at 1 μM; read-out: Dopamine (1 μM) D2L, percent inhibition of specific binding
T4 construct: expressed in transfected cells; host or cells: CHO cells
Outline: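 Human recombinant D2L receptor from CHO cells, in Tris-HCl buffer pH 7.4 with ascorbic acid, BSA and 150 mM NaCl; compounds at 1 μM or lower (1% DMSO) incubated with 0.16 nM [3H]spiperone, 120 min, 25° C. Nonspecific binding by 10 μM haloperidol; filter counting; % inhibition of specific binding.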

T4 sequence (P14416 whole entry): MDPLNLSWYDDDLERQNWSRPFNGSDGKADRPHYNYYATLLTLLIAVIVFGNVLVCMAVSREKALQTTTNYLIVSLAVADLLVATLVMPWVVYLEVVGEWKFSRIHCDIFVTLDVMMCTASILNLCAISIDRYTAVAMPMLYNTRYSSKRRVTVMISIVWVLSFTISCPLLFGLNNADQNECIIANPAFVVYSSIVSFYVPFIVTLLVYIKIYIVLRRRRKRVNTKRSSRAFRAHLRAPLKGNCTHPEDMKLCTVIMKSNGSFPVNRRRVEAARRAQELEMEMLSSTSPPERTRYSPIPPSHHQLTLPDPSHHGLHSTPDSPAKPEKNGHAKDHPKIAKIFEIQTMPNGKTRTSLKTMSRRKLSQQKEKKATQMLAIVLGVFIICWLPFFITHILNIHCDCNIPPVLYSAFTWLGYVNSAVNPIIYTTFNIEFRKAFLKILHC
T2 sequence (P25021 whole entry): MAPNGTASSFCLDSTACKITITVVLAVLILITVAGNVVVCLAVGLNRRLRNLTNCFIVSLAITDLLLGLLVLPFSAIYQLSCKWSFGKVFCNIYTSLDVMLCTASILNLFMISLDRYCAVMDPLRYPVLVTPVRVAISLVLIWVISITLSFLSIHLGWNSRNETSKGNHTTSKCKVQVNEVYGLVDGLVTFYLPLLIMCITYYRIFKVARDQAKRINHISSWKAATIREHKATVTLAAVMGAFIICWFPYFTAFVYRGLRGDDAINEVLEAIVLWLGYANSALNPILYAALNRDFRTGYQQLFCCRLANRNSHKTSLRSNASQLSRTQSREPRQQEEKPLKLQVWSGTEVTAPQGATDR

Row | Structure (SMILES) | inhibition at 1 µM [1] | inhibition at 1 µM [2] | inhibition at 1 µM [3] | inhibition at 1 µM [4]
1 | Cc1ccc2c(c1)c1c(n2CC(=O)N2CCOCC2)CCN(C)CC1 [Compound No. 38, 2-(2,3,4,5-tetrahydro-3,9-dimethylazepino[4,5-b]indol-6(1H)-yl)-1-morpholinoethanone] | 98% | 26% | 77% | 21%
2 | Cc1ccc2c(c1)c1c(n2CC(O)c2cccnc2)CCN(C)CC1 (centres unmarked) [Compound No. 19, 2-(2,3,4,5-tetrahydro-3,9-dimethylazepino[4,5-b]indol-6(1H)-yl)-1-(pyridin-3-yl)ethanol] | 52% | 42% | 69% | 12%
3 | Cc1ccc2c(c1)c1c(n2CCc2ccccn2)CCN(C)CC1 [Compound No. 9, 1,2,3,4,5,6-hexahydro-3,9-dimethyl-6-(2-(pyridin-2-yl)ethyl)azepino[4,5-b]indole] | 93% | 44% | 88% | 20%
4 | CN1CCc2c(n(CC(=O)N3CCCC3)c3ccc(Cl)cc23)CC1 [Compound No. 53, 2-(9-chloro-2,3,4,5-tetrahydro-3-methylazepino[4,5-b]indol-6(1H)-yl)-1-(pyrrolidin-1-yl)ethanone] | 32% | 3% | 1% | 2%
5 | Cc1ccc2c(c1)c1c(n2/C=C/c2ccc(F)cc2)CCN(C)CC1 [Compound No. 39, 6-(4-fluorostyryl)-1,2,3,4,5,6-hexahydro-3,9-dimethylazepino[4,5-b]indole] | 97% | 91% | 98% | 66%
6 | Cc1ccc2c(c1)c1c(n2/C=C/c2ccc(Cl)cc2)CCN(C)CC1 [Compound No. 235, (E)-6-(4-chlorostyryl)-3,9-dimethyl-1,2,3,4,5,6-hexahydroazepino[4,5-b]indole] | 98% | 94% | 95% | 42%
7 | COc1ccc(C(O)Cn2c3c(c4cc(C)ccc42)CCN(C)CC3)c(F)c1 (centres unmarked) [Compound No. 50, 1-(2-fluoro-4-methoxyphenyl)-2-(2,3,4,5-tetrahydro-3,9-dimethylazepino[4,5-b]indol-6(1H)-yl)ethanol] | 95% | 65% | 94% | 34%
8 | CN1CCc2c(n(CC(=O)Nc3ccc(F)cc3)c3ccc(Cl)cc23)CC1 [Compound No. 37, 2-(9-chloro-2,3,4,5-tetrahydro-3-methylazepino[4,5-b]indol-6(1H)-yl)-N-(4-fluorophenyl) acetamide] | 85% | 4% | 68% | 9%
9 | C=C(Cn1c2c(c3cc(Cl)ccc31)CCN(C)CC2)c1ccc(Cl)cc1 [Compound No. 35, 9-chloro-6-(2-(4-chlorophenyl)allyl)-3-methyl-1,2,3,4,5,6-hexahydroazepino[4,5-b]indole] | 91% | 104% | 93% | 50%
10 | Cc1ccc2c(c1)c1c(n2CC(=O)NC2CCCCC2)CCN(C)CC1 [Compound No. 22, N-cyclohexyl-2-(2,3,4,5-tetrahydro-3,9-dimethylazepino[4,5-b]indol-6(1H)-yl)acetamide] | -4% | 5% | -14% | 0%
11 | CN1CCc2c(n(CC(=O)Nc3ccccc3)c3ccc(Cl)cc23)CC1 [Compound No. 73, 2-(9-chloro-2,3,4,5-tetrahydro-3-methylazepino[4,5-b]indol-6(1H)-yl)-N-phenylacetamide] | 11% | -5% | 28% | -14%
12 | CN1CCc2c(n(C#Cc3ccc(Cl)cc3)c3ccc(Cl)cc23)CC1 [Compound No. 282, 9-chloro-6-((4-chlorophenyl)ethynyl)-3-methyl-1,2,3,4,5,6-hexahydroazepino[4,5-b]indole] | 103% | 87% | 95% | 1%
13 | Cc1ccc2c(c1)c1c(n2CCc2ccccc2Cl)CCN(C)CC1 [Compound No. 69, 6-(2-chlorophenethyl)-1,2,3,4,5,6-hexahydro-3,9-dimethylazepino[4,5-b]indole] | -1% | -9% | 8% | -2%
14 | COc1ccc(/C=C/n2c3c(c4cc(C)ccc42)CCN(C)CC3)c(F)c1 [Compound No. 230, (E)-6-(2-fluoro-4-methoxystyryl)-3,9-dimethyl-1,2,3,4,5,6-hexahydroazepino[4,5-b]indole] | 96% | 89% | 102% | 48%
15 | Cc1ccc2c(c1)c1c(n2CCc2ccncc2)CCN(C)CC1 [Compound No. 6, 1,2,3,4,5,6-hexahydro-3,9-dimethyl-6-(2-(pyridin-4-yl)ethyl)azepino[4,5-b]indole] | 92% | 52% | 93% | 30%
16 | Cc1ccc2c(c1)c1c(n2CCc2ccc(C(=O)O)nc2)CCN(C)CC1 [Compound No. 11, 5-(2-(2,3,4,5-tetrahydro-3,9-dimethylazepino[4,5-b]indol-6(1H)-yl)ethyl)pyridine-2-carboxylic acid] | 34% | 7% | 1% | -11%
17 | Cc1ccc2c(c1)c1c(n2CC(=O)N(C)C2CCCCC2)CCN(C)CC1 [Compound No. 232, N-cyclohexyl-2-(3,9-dimethyl-2,3,4,5-tetrahydroazepino[4,5-b]indol-6(1H)-yl)-N-methylacetamide] | 93% | 22% | 90% | 8%
18 | CN1CCc2c(n(CC(C)(O)c3ccc(F)cc3)c3ccc(Cl)cc23)CC1 (centres unmarked) [Compound No. 13, 1-(9-chloro-2,3,4,5-tetrahydro-3-methylazepino[4,5-b]indol-6(1H)-yl)-2-(4-fluorophenyl)propan-2-ol] | 89% | 92% | 94% | 38%
19 | COc1ccc(C(O)Cn2c3c(c4cc(Cl)ccc42)CCN(C)CC3)c(F)c1 (centres unmarked) [Compound No. 49, 2-(9-chloro-2,3,4,5-tetrahydro-3-methylazepino[4,5-b]indol-6(1H)-yl)-1-(2-fluoro-4-methoxyphenyl) ethanol] | 98% | 65% | 96% | 32%
20 | Cc1ccc2c(c1)c1c(n2CC(=O)N2CCCCC2)CCN(C)CC1 [Compound No. 32, 2-(2,3,4,5-tetrahydro-3,9-dimethylazepino[4,5-b]indol-6(1H)-yl)-1-(piperidin-1-yl)ethanone] | 48% | -5% | 39% | -1%
